Test results published in patent publication US10265288B2, “Methods and compositions for the treatment of proliferative disorders” (Beth Israel Deaconess Medical Center, Inc., priority 2011, dated 2019).
Where a SMILES comes first, the peptide text is derived from it. [ ]: non-standard residue; d: D form. pT = C[C@@H](OP(=O)(O)O)[C@H](N)C(=O)O; 2Nal = N[C@@H](Cc1ccc2ccccc2c1)C(=O)O; Bta = N[C@@H](Cc1csc2ccccc12)C(=O)O; Pip = O=C(O)[C@@H]1CCCCN1

Columns and labels:
Pin1 [1] = biological target: T1, Pin1 (Homo sapiens, UniProt Q13526); test: Pin1 inhibition by retinoids in a cell culture model; assay type: cell-based
T1 construct: We performed FP-HTS in a 384-well plate format with full length Pin1
T1 sequence (Q13526 whole entry): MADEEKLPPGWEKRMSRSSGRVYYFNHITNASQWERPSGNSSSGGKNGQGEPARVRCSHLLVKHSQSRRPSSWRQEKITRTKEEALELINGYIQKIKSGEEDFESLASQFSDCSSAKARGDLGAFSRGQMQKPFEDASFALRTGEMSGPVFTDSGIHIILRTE
Protocol: As trans-RA is selected as the current lead compound, it is important to identify the essential moiety of RAs on Pin1 interaction for further lead optimization. Many commercially available retinoids were tested for Pin1 inhibition. […] Other RA compounds that are metabolized to contain an end carboxylic group are also likely to be useful in treating proliferative disorders (FIG. 10D). In addition, compounds that modulate the retinoic acid receptor (FIGS. 10D and 11A and compounds listed in Table 1) are also likely to be useful in treating proliferative disorders.

breast cancer cells = test: cis-RA-mediated cell death with RARα knockdown; assay type: cell-based
T47D = test: cell viability; assay type: cell-based
Description: (§1) This discrepancy between cell lines was correlated with the RAs' ability to suppress Pin1 expression. Pin1 level was decreased by treatment of RAs in drugs-responsive SKBR3 and T47D, but not in drugs-irresponsive normal cells, MCF10A (FIG. 7B), in which Pin1 target protein, cyclin D1, was served as biomarkers of in vivo Pin1 activity. […] To further confirm this premise, wild-type mouse embryonic fibroblast (WT MEF) and Pin1 knockout MEF (Pin1 KO MEF) were used to test trans-RA-mediated cell viability (FIGS. 9A-C). […] In addition, Pin1 KO MEF stably expressing WT Pin1, but not W34/K63A Pin1 mutant, enabled cells to re-sensitize trans-RA.

MCF10A = test: cell viability; assay type: cell-based; conditions: normal cell line MCF10A
Description: as §1

Pin1 [2] = biological target: T1, Pin1; test: PPIase assay; assay type: biochemical; conditions: dose-dependent manner
Protocol: (§2) We used the FP-HTS with a 5 nM probe and 200 nM Pin1 to conduct a pilot screen on a selected set of chemical libraries. We obtained the resulting potential positive hits and grouped them into 3 classes according to the Z-score, which is folds of standard deviation below the mean. […] 1) cis-RA is not listed in promiscuous inhibitor databases 2) all-trans retinoic acid (trans-RA), the pairing compound of cis-RA, is currently used as oral prescription for patients with acute promyelocytic leukemia […]; 3) both cis-RA and trans-RAs are used as a medication in the phase II/III clinical trial for breast cancer, and more because of its ability to kill rapidly dividing cells; and 4) although it has been reported that RAs target on retinoic acid receptor (RAR), the exact mechanism of the anticancer action is unknown. As a result, we examined whether the anti-cancer effect of RAs depends on RAR in the breast cancer cells. […] In the PPIase assay, Pin1 activity was blocked by either cis- or trans-RA in a dose-dependent manner (FIG. 4).

Pin1 [3] = biological target: T1, Pin1; test: single-step fluorescence polarization-based displacement assay (FP-HTS); assay type: binding
Protocol: We used the FP-HTS with a 5 nM probe and 200 nM Pin1 to conduct a pilot screen on a selected set of chemical libraries.

SKBR3 = test: cell viability; assay type: cell-based, human
Description: as §1

Pin1 and DAPK1 = Pin1 and DAPK1 (Homo sapiens, UniProt Q13526); test: association between Pin1 and DAPK1 (competition); assay type: binding; conditions: dose-dependent manner, trans being more potent
Pin1 and DAPK1, sequence (Q13526 whole entry): as above

WT MEF and Pin1 KO MEF = test: trans-RA-mediated cell viability in MEF; assay type: cell-based, mouse
Description: as §1

[4] = system: Pin1 K63A, S67E, R68/69A, H59A or S71E; test: trans-RA binding to Pin1 point mutants; conditions: point mutations K63A
Protocol: as §2

Structure (SMILES) | Pin1 inhibition (Pin1 [1]) | IC50 (cell viability) (T47D) | cell viability (MCF10A) | Pin1 activity (Pin1 [2]) | IC50 (cell viability) (SKBR3) | association between Pin1 and DAPK1 (Pin1 and DAPK1) | also measured
CCCCCCCCc1ccc(-c2ccc(C(=O)O)cc2)cc1 [AC-55649] | maintained Pin1 inhibition | – | – | – | – | – | –
COc1cc(C)c(/C=C/C(C)=C/C=C/C(C)=C/C(=O)O)c(C)c1C [acitretin] | maintained Pin1 inhibition | – | – | – | – | – | –
CC1=C(/C=C/C(C)=C/C=C/C(C)=C\C(=O)O)C(C)(C)CCC1 [cis-RA, (2Z,4E,6E,8E)-3,7-dimethyl-9-(2,6,6-trimethylcyclohexen-1-yl)nona-2,4,6,8-tetraenoic acid] | maintained Pin1 inhibition | nano-molar range | remained unaffected | blocked | nano-molar range | blocked | rescue of cis-RA-mediated cell death (breast cancer cells): only partially rescue; pilot screen hit class according to Z-score (Pin1 [3]; 5 nM probe and 200 nM Pin1): top strong chemical; Pin1 inhibition in the FP assay (Pin1 [3]; long-term incubation with Pin1): eventually catch up with trans-RA
C[C@@H](OP(=O)(O)O)[C@H](NC(=O)[C@@H](N)Cc1csc2ccccc12)C(=O)N1CCCC[C@H]1C(=O)N[C@@H](Cc1ccc2ccccc2c1)C(=O)O [pTide, Bth-L-phos.Thr-Pip-Nal] (H-[Bta][pT][Pip][2Nal]-OH; N-terminus and C-terminus assumed) | – | – | – | – | – | – | displacement of HF488 probe from Pin1 (Pin1 [3]): displaced
CC1=C(/C=C/C(C)=C/C=C/C(C)=C/C(=O)O)C(C)(C)CCC1 [trans-RA, (2E,4E,6E,8E)-3,7-dimethyl-9-(2,6,6-trimethylcyclohexen-1-yl)nona-2,4,6,8-tetraenoic acid] | maintained Pin1 inhibition | nano-molar range | remained unaffected | blocked | nano-molar range | blocked | Pin1 inhibition in the FP assay (Pin1 [3]; compared with cis-RA): more prominent Pin1 inhibition than cis-RA; cell viability (WT MEF and Pin1 KO MEF; Pin1 KO MEF compared with WT MEF): more resistant; cell viability (WT MEF and Pin1 KO MEF; Pin1 KO MEF stably expressing WT Pin1): re-sensitize; trans-RA binding to Pin1 [4]: completely or significantly abolished
